Laboratory results: BindingDB's records for doi:10.1021/jm0009181 (National Center For Genetic Engineering and Biotechnology …, 2000)

These compounds were tested against Bifunctional dihydrofolate reductase-thymidylate synthase (Plasmodium falciparum, UniProt A7UD81) (assay: Evaluated for inhibition constant (Ki wt) against Wild-type dihydrofolate reductase of Plasmodium falciparum).
Bifunctional dihydrofolate reductase-thymidylate synthase, sequence (A7UD81 whole entry): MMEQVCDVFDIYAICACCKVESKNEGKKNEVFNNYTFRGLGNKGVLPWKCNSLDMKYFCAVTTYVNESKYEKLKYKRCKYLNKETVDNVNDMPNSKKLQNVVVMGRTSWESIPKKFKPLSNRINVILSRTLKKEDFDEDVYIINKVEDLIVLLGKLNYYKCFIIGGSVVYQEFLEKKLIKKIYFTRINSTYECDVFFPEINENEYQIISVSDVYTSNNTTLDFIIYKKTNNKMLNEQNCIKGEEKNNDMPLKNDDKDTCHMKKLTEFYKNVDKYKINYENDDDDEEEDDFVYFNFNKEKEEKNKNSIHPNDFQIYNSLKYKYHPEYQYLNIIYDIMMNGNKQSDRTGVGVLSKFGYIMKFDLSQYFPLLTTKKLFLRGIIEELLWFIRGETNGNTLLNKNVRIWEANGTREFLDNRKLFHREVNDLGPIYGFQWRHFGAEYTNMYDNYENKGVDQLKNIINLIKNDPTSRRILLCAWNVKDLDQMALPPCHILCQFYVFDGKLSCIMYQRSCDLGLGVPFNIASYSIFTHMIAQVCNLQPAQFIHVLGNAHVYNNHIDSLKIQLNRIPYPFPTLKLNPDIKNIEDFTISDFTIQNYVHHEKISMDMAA

Ki [nM] | Structure (SMILES)
5.9 | CCC1N=C(N)N=C(N)N1c1ccc(C)cc1 (stereo unspecified) [6-Ethyl-1-p-tolyl-1,6-dihydro-[1,3,5]triazine-2,4-diamine]
4.6 | CC1(C)N=C(N)N=C(N)N1c1ccc(F)cc1 [1-(4-Fluoro-phenyl)-6,6-dimethyl-1,6-dihydro-[1,3,5]triazine-2,4-diamine]
270 | NC1=NCN(c2ccc(F)cc2)C(N)=N1 [1-(4-Fluoro-phenyl)-1,6-dihydro-[1,3,5]triazine-2,4-diamine]
13.7 | CCCC1N=C(N)N=C(N)N1c1ccc(C)cc1 (stereo unspecified) [6-Propyl-1-p-tolyl-1,6-dihydro-[1,3,5]triazine-2,4-diamine]
23 | Cc1ccc(N2C(N)=NC(N)=NC2C)cc1 (stereo unspecified) [6-Methyl-1-p-tolyl-1,6-dihydro-[1,3,5]triazine-2,4-diamine]
167 | Cc1ccc(N2C(N)=NC(N)=NC2C(C)C)cc1 (stereo unspecified) [6-Isopropyl-1-p-tolyl-1,6-dihydro-[1,3,5]triazine-2,4-diamine]
329 | NC1=NCN(c2ccccc2)C(N)=N1 [1-Phenyl-1,6-dihydro-[1,3,5]triazine-2,4-diamine]
20 | CC1(C)N=C(N)N=C(N)N1c1ccccc1 [6,6-Dimethyl-1-phenyl-1,6-dihydro-[1,3,5]triazine-2,4-diamine]
7.7 | Cc1ccc(N2C(N)=NC(N)=NC2c2ccccc2)cc1 (stereo unspecified) [6-Phenyl-1-p-tolyl-1,6-dihydro-[1,3,5]triazine-2,4-diamine]
3.7 | CCCCC1N=C(N)N=C(N)N1c1ccc(Cl)cc1 (stereo unspecified) [6-Butyl-1-(4-chloro-phenyl)-1,6-dihydro-[1,3,5]triazine-2,4-diamine]

Continued, compound first:

Structure (SMILES) | Ki [nM]
NC1=NC(c2ccccc2)N(c2ccc(Br)cc2)C(N)=N1 (stereo unspecified) [1-(4-Bromo-phenyl)-6-phenyl-1,6-dihydro-[1,3,5]triazine-2,4-diamine] | 2.9
CCC1N=C(N)N=C(N)N1c1ccc(Br)cc1 (stereo unspecified) [1-(4-Bromo-phenyl)-6-ethyl-1,6-dihydro-[1,3,5]triazine-2,4-diamine] | 5.7
CC1N=C(N)N=C(N)N1c1ccc(Br)cc1 (stereo unspecified) [1-(4-Bromo-phenyl)-6-methyl-1,6-dihydro-[1,3,5]triazine-2,4-diamine] | 5.7
CC1N=C(N)N=C(N)N1c1ccc(Cl)c(Cl)c1 (stereo unspecified) [1-(3,4-Dichloro-phenyl)-6-methyl-1,6-dihydro-[1,3,5]triazine-2,4-diamine] | 1.4
CC(C)C1N=C(N)N=C(N)N1c1ccc(Cl)cc1 (stereo unspecified) [1-(4-Chloro-phenyl)-6-isopropyl-1,6-dihydro-[1,3,5]triazine-2,4-diamine] | 60.5
CC1(C)N=C(N)N=C(N)N1c1ccc(Br)cc1 [1-(4-Bromo-phenyl)-6,6-dimethyl-1,6-dihydro-[1,3,5]triazine-2,4-diamine] | 1.1
NC1=NCN(c2ccc(Cl)cc2)C(N)=N1 [1-(4-Chloro-phenyl)-1,6-dihydro-[1,3,5]triazine-2,4-diamine] | 24.4
CC(C)C1N=C(N)N=C(N)N1c1ccc(Br)cc1 (stereo unspecified) [1-(4-Bromo-phenyl)-6-isopropyl-1,6-dihydro-[1,3,5]triazine-2,4-diamine] | 30
CCCC1N=C(N)N=C(N)N1c1ccc(Cl)cc1 (stereo unspecified) [1-(4-Chloro-phenyl)-6-propyl-1,6-dihydro-[1,3,5]triazine-2,4-diamine] | 4.6
CCC1N=C(N)N=C(N)N1c1ccc(Cl)cc1 (stereo unspecified) [1-(4-Chloro-phenyl)-6-ethyl-1,6-dihydro-[1,3,5]triazine-2,4-diamine] | 3.6
CCCC1N=C(N)N=C(N)N1c1ccc(Br)cc1 (stereo unspecified) [1-(4-Bromo-phenyl)-6-propyl-1,6-dihydro-[1,3,5]triazine-2,4-diamine] | 2.6
